Assay: Measurement of Log P values by HPLC on reversed phase columns (EEC directive 79/831 Annex V.A8)
Type: physicochemical
Experimental: Measurement of Log P values as provided herein was performed according to EEC directive 79/831 Annex V.A8 by HPLC (High Performance Liquid Chromatography) on reversed phase columns with the following methods: • ^[a] Log P value is determined by measurement of LC-UV, in an acidic range, with 0.1% formic acid in water and acetonitrile as eluent (linear gradient from 10% acetonitrile to 95% acetonitrile). • ^[b] Log P value is determined by measurement of LC-UV, in a neutral range, with 0.001 molar ammonium acetate solution in water and acetonitrile as eluent (linear gradient from 10% acetonitrile to 95% acetonitrile). • ^[c] Log P value is determined by measurement of LC-UV, in an acidic range, with 0.1% phosphoric acid and acetonitrile as eluent (linear gradient from 10% acetonitrile to 95% acetonitrile).
If more than one Log P value is available within the same method, all the values are given and separated by “+”.
Calibration was done with straight-chain alkan2-ones (with 3 to 16 carbon atoms) with known Log P values (measurement of Log P values using retention times with linear interpolation between successive alkanones). Lambda-max-values were determined using UV-spectra from 200 nm to 400 nm and the peak values of the chromatographic signals

SMILES	LogP
Cc1ccc(C(F)(F)CNC(=O)c2nc(C)ncc2Oc2ccc3ccccc3c2)c(C)c1 [Compound I-106]	4.35^[a]
Cc1ccc(/C(F)=C/NC(=O)c2nc(C3CC3)nnc2Oc2cccc(C)c2F)c(C)c1 [Compound I-107]	4.85^[a]
Cc1ccc(/C(F)=C\NC(=O)c2nc(C3CC3)nnc2Oc2cccc(Cl)c2F)c(C)c1 [Compound I-109]	5.00^[a]
CCN(CCc1ccccc1)C(=O)c1nc(C)ncc1Oc1cccc(C2CC2)c1F [Compound I-111]	4.04^[a]
Cc1ccc(/C(F)=C/NC(=O)c2nc(C3CC3)nnc2Oc2cccc(C3CC3)c2F)c(C)c1 [Compound I-112]	5.20^[a]
Cc1ncc(Oc2cccc(C3CC3)c2F)c(C(=O)NC2CCOc3c(C)cccc32)n1 (centres unmarked) [Compound I-113]	4.02^[a]
Cc1ncc(Oc2cccc(C3CC3)c2F)c(C(=O)NC2CCCc3ccc(Cl)cc32)n1 (centres unmarked) [Compound I-114]	4.46^[a]
C=Cc1cccc(Oc2cnc(C)nc2C(=O)NCC(F)(F)c2ccc(C)cc2C)c1 [Compound I-115]	4.17^[a]
COc1ccc2c(c1)C(NC(=O)c1nc(C)ncc1Oc1cccc(C3CC3)c1F)C(OC)CC2 (centres unmarked) [Compound I-116]	3.99^[a]
Cc1nnc(Oc2cccc(C(F)(F)F)c2)c(C(=O)NC(C)c2cccc(C(F)(F)F)c2)n1 (centres unmarked) [Compound I-119]	3.77^[a]
CCON(Cc1ccccc1)C(=O)c1nc(C)ncc1Oc1cccc(C2CC2)c1F [Compound I-123]	3.97^[a]
Cc1ncc(Oc2cccc(C3CC3)c2F)c(C(=O)NCCc2ccc3c(c2)OCO3)n1 [Compound I-124]	3.34^[a]

Continued, values first:

LogP	SMILES
4.72^[a]	Cc1ccc(C(F)(F)CNC(=O)c2nc(C)ncc2Oc2ccc(Cl)c(C(F)(F)F)c2)c(C)c1 [Compound I-108]
3.35^[a]	Cc1nnc(Oc2cccc(C(F)(F)F)c2)c(C(=O)NCC2(c3ccc(Cl)cc3)COC2)n1 [Compound I-110]
4.33^[a]	Cc1ccc(C(F)(F)CNC(=O)c2nc(C)nnc2Oc2cccc(C3CC3)c2)c(C)c1 [Compound I-117]
2.78^[a]	Cc1ccc(C(F)(F)CNC(=O)c2nc(C)ncc2Oc2cnc3c(c2)CCC3)c(C)c1 [Compound I-118]
3.40^[a]	Cc1ccc(C(F)(F)CNC(=O)c2nc(C)ncc2Oc2cnc3ccccc3c2)c(C)c1 [Compound I-120]
4.74^[a]	Cc1ccc(C(F)(F)CNC(=O)c2nc(C3CC3)nnc2Oc2cccc(C(F)(F)F)c2)c(C)c1 [Compound I-121]
4.54^[a]	Cc1ccc(C(F)(F)CNC(=O)c2nc(C)ncc2Oc2cccc(-n3ccc(C(F)(F)F)n3)c2)c(C)c1 [Compound I-122]
4.11^[a]	CSc1cccc(Oc2cnc(C)nc2C(=O)NCC(F)(F)c2ccc(C)cc2C)c1 [Compound I-126]
3.59^[a]	Cc1ccc(C(F)(F)CNC(=O)c2nc(C)ncc2Oc2ccc3c(c2)CCO3)c(C)c1 [Compound I-128]
4.20^[a]	Cc1ccc(C(F)(F)CNC(=O)c2nc(C)ncc2Oc2ccc(F)c(Cl)c2)c(C)c1 [Compound I-129]
4.66^[a]	Cc1ccc(C(F)(F)CNC(=O)c2nc(C3CC3)nnc2Oc2cccc(C(F)(F)F)c2)c(Cl)c1 [Compound I-130]
4.62^[a]	Cc1ccc(C(F)(F)CNC(=O)c2nc(C3CC3)nnc2Oc2cccc(Cl)c2F)c(C)c1 [Compound I-131]
4.97^[a]	Cc1ccc(C(F)=CNC(=O)c2nc(C3CC3)nnc2Oc2cccc(Br)c2)c(C)c1 [Compound I-132]
4.10^[a]	Cc1ncc(Oc2cccc(C3CC3)c2F)c(C(=O)NCCc2csc(C)c2C)n1 [Compound I-134]
